Measurements: paper PMC7076352 (Pharmaceutics, 2020)
Like-named read-outs stand apart in the source and are kept apart here. One block for each compound: values may come before it.

Columns and labels:
[1] = biological target: T1, CYP1A2 (Rattus norvegicus, UniProt P04799); details: read-out: Reported Km; probe substrate PHE, CYP1A2, literature range ref 9; cited from earlier work
T1 sequence (P04799 1-513): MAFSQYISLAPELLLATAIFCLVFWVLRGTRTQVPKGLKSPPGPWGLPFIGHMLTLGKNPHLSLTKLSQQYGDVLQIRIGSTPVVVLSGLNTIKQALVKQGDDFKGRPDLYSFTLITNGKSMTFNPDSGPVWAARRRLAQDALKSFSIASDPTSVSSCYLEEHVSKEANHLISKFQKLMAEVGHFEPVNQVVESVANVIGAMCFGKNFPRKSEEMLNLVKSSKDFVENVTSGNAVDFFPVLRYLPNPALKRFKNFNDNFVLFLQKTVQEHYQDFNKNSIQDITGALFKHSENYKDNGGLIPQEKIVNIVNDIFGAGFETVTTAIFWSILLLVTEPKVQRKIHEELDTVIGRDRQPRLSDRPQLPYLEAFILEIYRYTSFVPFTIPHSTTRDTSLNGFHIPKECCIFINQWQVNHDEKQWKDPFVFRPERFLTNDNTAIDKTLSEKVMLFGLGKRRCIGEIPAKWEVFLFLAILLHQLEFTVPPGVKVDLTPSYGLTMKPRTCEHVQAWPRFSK

[2] = tested on: CYP450s; test: In vitro cocktail CYP450 activity assay, isozyme not given; assay type: in vitro ADME, SD rat
Experimental: (OHBUP-[D6]) and 5 nM 4′-hydroxydiclofenac-[^13C6] (OHDIC-[^13C6]) as internal standards (ISs).

[3] = tested on: CYP3A4; test: in vitro; details: microsomes
Experimental: (§1) (OHBUP-[D6]) and 5 nM 4′-hydroxydiclofenac-[^13C6] (OHDIC-[^13C6]) as internal standards (ISs). […]
(§2) standard addition experiments. Each group included four concentration levels. For the PK […]
(§3) The probe compounds, viz. […]
(§4) chosen after incubating all the recruited substrates. In order to assure the linear relationship […]
(§5) The incubation system was also optimized in terms of substrate concentrations. The substrates concentrations of […]

[4] = tested on: CYP2B6; test: in vitro; details: microsomes
Experimental: as §1, §2, §3, §4, §5

[5] = tested on: CYP2C9; test: in vitro; details: microsomes
Experimental: as §1, §2, §3, §4, §5

[6] = tested on: CYP2D6; test: in vitro; details: microsomes
Experimental: as §1, §2, §3, §4, §5

[7] = biological target: T1, CYP1A2; test: In vitro cocktail CYP450 activity assay in rat liver microsomes, CYP1A2 (phenacetin probe); details: microsomes
Experimental: as §1, §2, §3, §4, §5

[8] = tested on: CYP2C19; test: in vitro; details: microsomes
Experimental: as §1, §2, §3, §4, §5

[9] = biological target: CYP2E1 (Rattus norvegicus, UniProt P05182); details: microsomes
[10] = tested on: CYP3A4; details: read-out: Reported IC50; positive inhibitor of CYP3A4, literature ref 9; cited from earlier work

Chain of CYP2E1 (P05182 whole entry): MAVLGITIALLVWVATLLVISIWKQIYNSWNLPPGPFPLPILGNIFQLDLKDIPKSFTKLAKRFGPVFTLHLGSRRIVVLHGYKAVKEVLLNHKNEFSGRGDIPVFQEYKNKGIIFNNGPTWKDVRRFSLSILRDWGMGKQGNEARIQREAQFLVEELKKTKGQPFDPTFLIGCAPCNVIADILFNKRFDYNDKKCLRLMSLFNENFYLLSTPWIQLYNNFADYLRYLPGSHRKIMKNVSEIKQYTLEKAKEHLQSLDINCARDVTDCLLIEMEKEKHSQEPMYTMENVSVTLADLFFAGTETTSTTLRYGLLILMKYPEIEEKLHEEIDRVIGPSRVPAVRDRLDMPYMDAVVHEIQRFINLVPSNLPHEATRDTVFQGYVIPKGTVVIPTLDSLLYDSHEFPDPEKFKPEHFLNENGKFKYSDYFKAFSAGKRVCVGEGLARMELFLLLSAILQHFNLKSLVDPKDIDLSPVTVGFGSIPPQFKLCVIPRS

SMILES: CCOc1ccc(NC(C)=O)cc1 [PHE, phenacetin]
Km [1]: 1.7 to 152 µM

IC50 [2]: ≤ 15 µM
IC50 [3]: 34.4 ± 9.16 µM
IC50 [4]: > 200 µM
IC50 [5]: 1.21 ± 0.51 µM
IC50 [6]: 10.5 ± 1.11 µM
IC50 [7]: > 200 µM
IC50 [8]: 111 ± 21.6 µM
IC50 [9]: 9.06 ± 1.85 µM
SMILES: O=C(/C=C/c1ccc(O)cc1)C1=C(O)C2=C(O[C@H]([C@@H](O)[C@H](O)[C@H](O)CO)[C@H]2C2=C(O)/C(=C(O)/C=C/c3ccc(O)cc3)C(=O)C(O)([C@@H]3O[C@H](CO)[C@@H](O)[C@H](O)[C@H]3O)C2=O)C(O)([C@@H]2O[C@H](CO)[C@@H](O)[C@H](O)[C@H]2O)C1=O (some centres unmarked) [A8, anhydroxysafflor yellow B]
